US11485744B2, “High penetration prodrug compositions of antimicrobials and antimicrobial-related compounds” (priority 2009, dated 2022)

What was measured:
[1] = Conversion of HPPs to parent drugs in human plasma (half life); assay type: in vitro ADME; settings: for half-life at 9.1 mg/mL: pH 7.4
Experimental: HPPs of antimicrobials or antimicrobial-related compounds converted to the parent antimicrobials or antimicrobial-related compounds quickly in good yield in human plasma.
A HPP of antimicrobial or antimicrobial-related compound (10 mg) was dissolved in 0.1 ml of 0.2M pH 7.4 phosphate buffer. 1 ml of human plasma, preheated to 37° C., was added into the mixture. The mixture was kept in a water bath at 37° C., and at every 2 min intervals 0.2 ml of samples were withdrawn and added to 0.4 ml of methanol to precipitate the plasma protein.

[2] = In vitro penetration across isolated human skin in modified Franz cells
Experimental: Penetration rates of HPPs and their parent drugs through human skin were measured in vitro by modified Franz cells. A Franz cell had two chambers, the top sample chamber and the bottom receiving chamber. The human skin tissue (360-400 μm thick) that separated the top and the receiving chambers was isolated from the anterior or posterior thigh areas.
A test compound (2 mL, 10% in 0.2 M phosphate buffer, pH 7.4) was added to the sample chamber of a Franz cell. The receiving chamber contained 10 ml of 0.2 M phosphate buffer which was stirred at 600 rpm. The amount of the tested compound penetrating the skin was determined by high-performance liquid chromatography (HPLC) method.

[3] = mouse, in vivo
Experimental: In vivo rates of penetration of HPPs of beta-lactam antibiotics through skin and blood-brain barrier of intact hairless mice were studied. […] After 2 hours, the mice were killed. 5 ml of methanol was added to 1 g of homogenized blood, liver, kidney, muscle, or brain. The samples were centrifuged for 5 min and analyzed by HPLC (Table 2).

CCN(CC)CCOC(=O)C1=C(COC(C)=O)CSC2C(NC(=O)C(=NOC)c3csc(NC(C)=O)n3)C(=O)N12.Cl (stereo not drawn) [3-[(acetyloxy)methyl]-7-[[(2-acetylamino-4-thiazolyl)(methoxyimino)acetyl]amino]-8-oxo-5-thia-1-azabicyclo[4.2.0]oct-2-ene-2-carboxylic acid 2-diethylaminoethyl ester hydrochloride]
half-life at 9.1 mg/mL ([1]; human, plasma): 10 min
In vitro Penetration Rate (apparent flux), HPPs ([2]; human, 10 %, pH 7.4): 0.73 ± 0.06 mg/cm^2/h

CCN(CC)CCOC(=O)C1=C(COC(N)=O)CSC2N1C(=O)C2(NC(=O)Cc1cccs1)OC.Cl (stereo not drawn) [3-[[(aminocarbonyl)oxy]methyl]-7-methoxy-8-oxo-7-[(2-thienylacetyl)amino]-5-thia-1-azabicyclo[4.2.0]oct-2-ene-2-carboxylic acid 2-diethylaminoethyl ester hydrochloride]
half-life at 9.1 mg/mL ([1]; human, plasma): 7 min
In vitro Penetration Rate (apparent flux), HPPs ([2]; human, 10 %, pH 7.4): 0.61 ± 0.05 mg/cm^2/h

CCN(CC)CCOC(=O)C1N2C(=O)C(NC(=O)[C@H](NC(C)=O)c3ccccc3)C2SC1(C)C.Cl (stereo partly drawn) [6-[D(−)-α-acetamidophenylacetamidopenicillinic acid 2-diethylaminoethyl ester hydrochloride]
Half life of HPPs in plasma ([1]; human, plasma): 10 ± 1 min

CCN(CC)CCOC(=O)C1N2C(=O)C(NC(=O)[C@H](NC(=O)N3CCNC3=O)c3ccccc3)C2SC1(C)C.Cl (stereo partly drawn) [D-α-[(imidazolidin-2-on-1-yl)carbonylamino]benzylpenicillin 2-diethylaminoethyl ester hydrochloride]
Half life of HPPs in plasma ([1]; human, plasma): 9 ± 1 min

CCN(CC)CCOC(=O)C1=C(CSc2nnnn2C)CSC2C(NC(=O)C(O)c3ccccc3)C(=O)N12.Cl (stereo not drawn) [7-[(hydroxyphenylacetyl)amino]-3-[[(1-methyl-1H-tetrazol-5-yl)thio]methyl]-8-oxo-5-thia-1-azabicyclo[4.2.0]oct-2-ene-2-carboxylic acid 2-diethylaminoethyl ester hydrochloride]
half-life at 9.1 mg/mL ([1]; human, plasma): 10 min
In vitro Penetration Rate (apparent flux), HPPs ([2]; human, 10 %, pH 7.4): 0.75 ± 0.05 mg/cm^2/h

3-[[(aminocarbonyl)oxy]methyl]-7-[[2-furanyl(methoxyimino)acetyl]amino]-8-oxo-5-thia-1-azabicyclo[4.2.0]oct-2-ene-2-carboxylic acid 2-diethylaminoethyl ester hydrochloride
Half life of HPPs in plasma ([1]; human plasma, 37° C.): 8 ± 1 min
In vitro Penetration Rate (apparent flux), HPPs ([2]; Table 1a, isolated human skin, Franz cells, 10% in 0.2 M phosphate buffer pH 7.4, n=5): 0.67 ± 0.04 mg/cm^2/h

CCN(CC)CCOC(=O)C1N2C(=O)[C@@H](NC(=O)C(NC(=O)N3CCN(S(C)(=O)=O)C3=O)c3ccccc3)C2SC1(C)C.Cl (stereo partly drawn) [6R-[2-[3-(methylsulfonyl)-2-oxo-1-imidazolidinecarboxamido]-2-phenylacetamido]penicillinic acid 2-diethylaminoethyl ester hydrochloride]
Half life of HPPs in plasma ([1]; human, plasma): 13 ± 1 min

CCN(CC)CCOC(=O)C1=C(COC(C)=O)CSC2C(NC(=O)Cc3cccs3)C(=O)N12.Cl (stereo not drawn) [7-(2-thienylacetamido)cephalosporanic acid 2-diethylaminoethyl ester hydrochloride]
Half life of HPPs in plasma ([1]; human plasma, 37° C.): 9 ± 1 min
In vitro Penetration Rate (apparent flux), HPPs ([2]; pH 7.4): 0.62 ± 0.06 mg/cm^2/h

CCN(CC)CCOC(=O)C1N2C(=O)C(NC(=O)[C@H](NC(=O)N3CCN(CC)C(=O)C3=O)c3ccccc3)C2SC1(C)C.Cl (stereo partly drawn) [6-D(−)-α-(4-ethyl-2,3-dioxo-1-piperazinylcarbonylamino)-α-phenylacetamidopenicillinic acid 2-diethylaminoethyl ester hydrochloride]
Half life of HPPs in plasma ([1]; human plasma, 37° C.): 15 ± 1 min
In vitro Penetration Rate (apparent flux), HPPs ([2]; pH 7.4): 0.74 ± 0.08 mg/cm^2/h

CCN(CC)CCOC(=O)C1=C(Cl)CSC2C(NC(=O)C(NC(C)=O)c3ccccc3)C(=O)N12.Cl (stereo not drawn) [7-[(acetylaminophenylacetyl)amino]-3-chloro-8-oxo-5-thia-1-azabicyclo[4.2.0]oct-2-ene-2-carboxylic acid 2-diethylaminoethyl ester hydrochloride]
half-life at 9.1 mg/mL ([1]; human, plasma): 8 min
In vitro Penetration Rate (apparent flux), HPPs ([2]; human, 10 %, pH 7.4): 0.71 ± 0.05 mg/cm^2/h

CCN(CC)CCOC(=O)C1=C(CSc2nnnn2C)CSC2C(NC(=O)C(NC(=O)N3CCN(CC)C(=O)C3=O)c3ccc(OC(C)=O)cc3)C(=O)N12.Cl (stereo not drawn) [7-[[[[(4-ethyl-2,3-dioxo-1-piperazinyl)carbonyl]amino](4-acetoxyphenyl)acetyl]amino]-3-[[(1-methyl-1H-tetrazol-5-yl)thio]methyl]-8-oxo-5-thia-1-azabicyclo[4.2.0]oct-2-ene-2-carboxylic acid 2-diethylaminoethyl ester hydrochloride]
half-life at 9.1 mg/mL ([1]; human, plasma): 12 min
In vitro Penetration Rate (apparent flux), HPPs ([2]; human, 10 %, pH 7.4): 0.57 ± 0.04 mg/cm^2/h

CCN(CC)CCOC(=O)C1N2C(=O)C(NC(=O)c3c(-c4ccccc4Cl)noc3C)C2SC1(C)C.Cl (stereo not drawn) [6-[3-(o-chlorophenyl)-5-methyl-4-isoxazolecarboxamido]penicillinic acid 2-diethylaminoethyl ester hydrochloride]
Half life of HPPs in plasma ([1]; human, plasma): 8 ± 1 min
Amount of parent drug found in Blood [3]: 25 ± 8 µg/g
Amount of parent drug found in Brain [3]: 9 ± 5 µg/g
Amount of parent drug found in Kidney [3]: 12 ± 7 µg/g
Amount of parent drug found in Liver [3]: 14 ± 6 µg/g
Amount of parent drug found in Muscel [3]: 20 ± 7 µg/g

CCN(CC)CCOC(=O)C1N2C(=O)C(NC(=O)c3c(-c4c(Cl)cccc4Cl)noc3C)C2SC1(C)C.Cl (stereo not drawn) [6-[3-(2,6-dichlorophenyl)-5-methyl-4-isoxazolecarboxamido]penicillinic acid 2-diethylaminoethyl ester hydrochloride]
Half life of HPPs in plasma ([1]; human, plasma): 12 ± 1 min

Cc1onc(-c2ccccc2)c1C(=O)N[C@@H]1C(=O)N2[C@@H]1SC(C)(C)[C@@H]2C(=O)O [Oxacillin, reference compound]
drug detected in blood, liver, kidney, muscle or brain of mice treated with only the parent drug [3]: No drug was detected
In vitro Penetration Rate (apparent flux), Parent compounds ([2]; human, 10 %, pH 7.4): <0.001 mg/cm^2/h

C=CCSCC(=O)NC1C(=O)N2C1SC(C)(C)C2C(=O)OCCN(CC)CC.Cl (stereo not drawn) [allylmercaptomethylpenicillinic acid 2-diethylaminoethyl ester hydrochloride]
Half life of HPPs in plasma ([1]; human, plasma): 8 ± 1 min

CCN(CC)CCOC(=O)C1N2C(=O)C(NC(=O)C3C(c4ccccc4)=NOC3C)C2SC1(C)C.Cl (stereo not drawn) [6-(5-methyl-3-phenyl-2-isoxazoline-4-carboxamido)penicillinic acid 2-diethylaminoethyl ester hydrochloride]
Half life of HPPs in plasma ([1]; human, plasma): 12 ± 1 min
Amount of parent drug found in Blood [3]: 28 ± 5 µg/g
Amount of parent drug found in Brain [3]: 8 ± 6 µg/g
Amount of parent drug found in Kidney [3]: 16 ± 5 µg/g
Amount of parent drug found in Liver [3]: 18 ± 7 µg/g
Amount of parent drug found in Muscel [3]: 22 ± 5 µg/g

CCOC(=O)Cn1nnnc1SCC1=C(C(=O)OCCN(CC)CC)N2C(=O)C(NC(=O)Cc3ccccc3CNC(C)=O)C2SC1.Cl (stereo not drawn) [7-[[[2-(acetylaminomethyl)phenyl]acetyl]amino]-3-[[[1-(ethoxylcarbonylmethyl)-1H-tetrazol-5-yl]thio]methyl]-8-oxo-5-thia-1-azabicyclo[4.2.0]oct-2-ene-2-carboxylic acid 2-diethylaminoethyl ester hydrochloride]
half-life at 9.1 mg/mL ([1]; human, plasma): 9 min
In vitro Penetration Rate (apparent flux), HPPs ([2]; human, 10 %, pH 7.4): 0.52 ± 0.04 mg/cm^2/h

CCN(CC)CCOC(=O)C1=C(COC)CSC2C(NC(=O)/C(=N\OC)c3csc(NC(C)=O)n3)C(=O)N12.Cl (stereo not drawn) [7-[2-(2-acetylamino-4-thiazolyl)-2-((Z)-methoxyimino)acetamido]-3-(methoxymethyl)-8-oxo-5-thia-1-azabicyclo[4.2.0]oct-2-ene-2-carboxylic acid 2-diethylaminoethyl ester hydrochloride]
half-life at 9.1 mg/mL ([1]; human, plasma): 8 min
In vitro Penetration Rate (apparent flux), HPPs ([2]; human, 10 %, pH 7.4): 0.51 ± 0.03 mg/cm^2/h

CC1(C)SC2C(NC(=O)[C@H](NC(=O)N3CCNC3=O)c3ccccc3)C(=O)N2C1C(=O)OCC1CCCN1.Cl (stereo partly drawn) [D-α-[(imidazolidin-2-on-1-yl)carbonylamino]benzylpenicillin 2-pyrrolidinemethyl ester hydrochloride]
In vitro Penetration Rate (apparent flux), HPPs ([2]; pH 7.4): 0.72 ± 0.05 mg/cm^2/h

CC(=O)OCC1=C(C(=O)O)N2C(=O)[C@@H](NC(=O)Cc3cccs3)[C@H]2SC1 [Cephalothin, reference compound]
In vitro Penetration Rate (apparent flux), Parent compounds ([2]; human, 10 %, pH 7.4): <0.001 mg/cm^2/h

Cc1onc(-c2ccccc2Cl)c1C(=O)NC1C(=O)N2C1SC(C)(C)C2C(=O)OCCC1CCCNC1.Cl (stereo not drawn) [6-[3-(o-chlorophenyl)-5-methyl-4-isoxazolecarboxamido]penicillinic acid 3-piperidineethyl ester hydrochloride]
In vitro Penetration Rate (apparent flux), HPPs ([2]; pH 7.4): 0.85 ± 0.05 mg/cm^2/h

CCN1CCN(C(=O)N[C@@H](C(=O)N[C@@H]2C(=O)N3C(C(=O)O)=C(CSc4nnnn4C)CS[C@H]23)c2ccc(O)cc2)C(=O)C1=O [Cefoperazone, reference compound]
In vitro Penetration Rate (apparent flux), Parent compounds ([2]; human, 10 %, pH 7.4): <0.015 mg/cm^2/h

C=CC1=C(C(=O)OCCN(CC)CC)N2C(=O)C(NC(=O)/C(=N\OCC(=O)OCC)c3csc(NC(C)=O)n3)C2SC1.Cl (stereo not drawn) [7-[2-(2-acetylamino-4-thiazolyl)-2-((Z)-ethoxycarbonylmethoxy)imino]acetamido]-3-(vinyl)-8-oxo-5-thia-1-azabicyclo[4.2.0]oct-2-ene-2-carboxylic acid 2-diethylaminoethyl ester hydrochloride]
Half life of HPPs in plasma ([1]; human plasma, 37° C.): 9 ± 1 min
In vitro Penetration Rate (apparent flux), HPPs ([2]; pH 7.4): 0.58 ± 0.05 mg/cm^2/h
